Among the data in patent US20030114385A1, “Viral enzyme activated prototoxophores and use of same to treat viral infections” (priority 2001, published 2003) are IC50 values, retold here.

Where “and” joins values, the source holds several entries; their conditions need not be identical. Identical values can stand only once. Like-named read-outs stand apart in the source and are kept apart here. Square brackets hold non-standard residues; d marks the D form. Peptide text beside a SMILES is read from it. * marks the point of attachment. NH(4-NH2-anthraquinon-1-yl) = Nc1ccc(N*)c2c1C(=O)c1ccccc1C2=O; Cha = N[C@@H](CC1CCCCC1)C(=O)O; Abu = CC[C@H](N)C(=O)O

What all share (type): cell-based, human
In experiment [1] the test system is Det551 (skin fibroblasts). The method, then:
(§1) IC50 values of various potential HCV ECTA compounds (5761-5768) were determined using CCD 18co (normal colon epithelial cells), Det551 (skin fibroblasts), MCF7TDX (Tomudex resistant breast carcinoma cell line), HepG2 and Hep3B (hepatocellular carcinoma cell lines). Compound 5759 mimics the “released toxin” and serves as a positive control. IC50=the concentration of HCV ECTA compound that inhibits cellular growth by 50%.
(§2) Normal human colon epithelial cells (CCD18co), skin fibroblasts (Det551) Hepatocellular carcinoma cell lines (Hep3B and HepG2), breast cancer cell line (MCF7) and fibrosarcoma cell line (HT1080) were all purchased from the American Type Culture Collection (ATCC; Rockville Md.). MCF7TDX, human breast carcinoma cells resistant to 2 μM Tomudex™ have been described (ref. 98). Cells were cultured at 37° C. in 95% humidified air/5% CO2 in RPMI 1640 culture medium containing 10% fetal calf serum (Life Technologies) and penicillin/streptomycin/fungizone. MCF7TDX cells were maintained continuously in 2 μM Tomudex™. Normal cells were passaged a maximum of 15 times to avoid senescence.
(§3) The cytotoxic activity of various candidate prototoxophores was assessed by determining the IC50 value (concentration that inhibits cellular growth by 50%) in cellular proliferation assays and compared with the results obtained using the 5759 toxophore. Exponentially growing cells were transferred at a density of 1000 to 5500 cells per well to a 96 well tissue culture plate and allowed to attach for 24 hr. HCV ECTA compounds were applied in duplicate half log serial dilutions. After an additional 72 hr incubation, surviving adherent cells were washed once with PBS and stained with 0.5% crystal violet in methanol. Sorenson's buffer (0.025 M sodium citrate, 0.025 M citric acid in 50% ethanol) was added to each well and absorbance at 540 nm was monitored (absorbance at 540 nm correlates with cell survival; see refs. 103 to 105). Semi-adherent or non-adherent cells were stained with CYQUANT stain according to the protocol provided with the cell proliferation assay kit (C-7026; Molecular Probes; Eugene Oreg.). Fluorescence (485 nm excitation, 535 nm emission) was monitored. IC50 values were derived from sigmoid curves fit according to the Hill inhibitory Emax model (ref. 106).
(§4) Det551 or MCF7TDX cells were treated with compounds 5759, 5761, 5763 and 5767 for 2, 6, 12, 24 and 72 hours. After the indicated times the compounds were removed, the cells were washed, incubated for a total of 72 hours and IC50 values were determined. IC50=the concentration of HCV ECTA compound that inhibits cellular growth by 50%.
(§5) Cells were treated with compounds 5759, 5762 or 5763 for 15 hours. After removal of the compounds, the cells were washed, incubated for a total of 72 hours and IC50 values were determined. IC50=the concentration of HCV ECTA compound that inhibits cellular growth by 50%.

For experiment [2], the system named is CCD18co (normal colon epithelial cells). On the procedure:
as §1, §2, §3, §5

Experiment [3] has as its system Hep3B (hepatocellular carcinoma cell line). On the procedure: as §1, §2, §3, §5
Experiment [4] has as its system HepG2 (hepatocellular carcinoma cell line). The method, then:
as §1, §2, §3, §5

In experiment [5] the test system is MCF7TDX (Tomudex resistant breast carcinoma cell line). The method, then: as §1, §2, §3, §4, §5
The mark [6] stands for this setting: Det551, 72 hr incubation, read-out: IC50 (concentration that inhibits cellular growth by 50%).
Where [7] appears, read: 72 hr incubation, read-out: IC50 (concentration that inhibits cellular growth by 50%).
Where [8] appears, read: HepG2, 72 hr incubation, read-out: IC50 (concentration that inhibits cellular growth by 50%).
Where [9] appears, read: MCF7TDX, 72 hr incubation, read-out: IC50 (concentration that inhibits cellular growth by 50%).
Setting [10] is: Det551, 2 h exposure, washed, total 72 hours, read-out: IC50 after various times of drug exposure.
Setting [11] is: Det551, 6 h exposure, washed, total 72 hours, read-out: IC50 after various times of drug exposure.
The mark [12] stands for this setting: Det551, 12 h exposure, washed, total 72 hours, read-out: IC50 after various times of drug exposure.
[13] abbreviates: Det551, 24 h exposure, washed, total 72 hours, read-out: IC50 after various times of drug exposure.
Setting [14] is: Det551, 72 h exposure, read-out: IC50 after various times of drug exposure.
[15] abbreviates: MCF7/TDX, 2 h exposure, washed, total 72 hours, read-out: IC50 after various times of drug exposure.
[16] abbreviates: MCF7/TDX, 6 h exposure, washed, total 72 hours, read-out: IC50 after various times of drug exposure.
Setting [17] is: MCF7/TDX, 12 h exposure, washed, total 72 hours, read-out: IC50 after various times of drug exposure.
Where [18] appears, read: MCF7/TDX, 24 h exposure, washed, total 72 hours, read-out: IC50 after various times of drug exposure.
Setting [19] is: MCF7/TDX, 72 h exposure, read-out: IC50 after various times of drug exposure.
The mark [20] stands for this setting: MCF7TDX, 15 hours exposure, washed, total 72 hours, read-out: IC50 after 15 hour of drug exposure.
The mark [21] stands for this setting: Det551, 15 hours exposure, washed, total 72 hours, read-out: IC50 after 15 hour of drug exposure.
Setting [22] is: 15 hours exposure, washed, total 72 hours, read-out: IC50 after 15 hour of drug exposure.
[23] abbreviates: HepG2, 15 hours exposure, washed, total 72 hours, read-out: IC50 after 15 hour of drug exposure.

For `CC(=O)N[C@@H](CC(=O)O)C(=O)N[C@@H](CCC(=O)O)C(=O)N1CCC[C@H]1C(=O)N[C@@H](CC(C)C)C(=O)N[C@@H](C)C(=O)N[C@@H](CS)C(=O)N[C@@H](CO)C(=O)NCC(=O)NCC(=O)Nc1ccc(N)c2c1C(=O)c1ccccc1C2=O` [Compound 5765, Acetyl-Asp-Glu-Pro-Leu-Ala-Cys-Ser-Gly-Gly-toxin] (Ac-DEPLACSGG-{NH(4-NH2-anthraquinon-1-yl)}), the IC50 in experiment [1] (setting [6]) was 15 µM and 16 µM; in experiment [2] (setting [7]) it was 28 µM and 33 µM and 38 µM; in experiment [3] (setting [7]), 25 µM and 26 µM; in experiment [4] (setting [8]), 18 µM and 21 µM.

Take `CC[C@H](NC(=O)[C@H](CC(C)C)NC(=O)[C@@H](NC(=O)[C@H](C)NC(=O)[C@H](CCC(=O)O)NC(=O)[C@H](CC(=O)O)NC(C)=O)C(C)C)C(=O)N[C@@H](CO)C(=O)NCC(=O)NCC(=O)Nc1ccc(N)c2c1C(=O)c1ccccc1C2=O` [Compound 5767, Acetyl-Asp-Glu-Ala-Val-Leu-ABA-Ser-Gly-Gly-toxin] (Ac-DEAVL[Abu]SGG-{NH(4-NH2-anthraquinon-1-yl)}): the IC50 in experiment [5] (setting [9]) is 8 µM; in experiment [1] (setting [10]), more than 150 µM; in experiment [1] (setting [11]), 13 µM; in experiment [1] (setting [12]), 11 µM; in experiment [1] (setting [13]) it was 11 µM; in experiment [1] (setting [14]) it was 8 µM. Also, the IC50 was 5.1 µM and 8 µM in experiment [1] (setting [6]); 13.2 µM in experiment [2] (setting [7]); 13.8 µM in experiment [4] (setting [8]).

Turning to `CC[C@H](NC(=O)[C@@H]1CCCN1C(=O)[C@@H](NC(=O)[C@@H](NC(=O)[C@H](CCC(=O)O)NC(=O)[C@H](CC(=O)O)NC(C)=O)C(C)C)[C@@H](C)O)C(=O)N[C@@H](CO)C(=O)NCC(=O)NCC(=O)Nc1ccc(N)c2c1C(=O)c1ccccc1C2=O` [Compound 5768, Acetyl-Asp-Glu-Val-Tbr-Pro-ABA-Ser-Gly-Gly-toxin] (Ac-DEVTP[Abu]SGG-{NH(4-NH2-anthraquinon-1-yl)}), the values for the IC50 in experiment [5] (setting [9]), in experiment [2] (setting [7]) and in experiment [4] (setting [8]) were 14 µM, 32 µM and 24 µM, respectively.

As for `CC(=O)N[C@@H](CC(=O)O)C(=O)N[C@@H](CCC(=O)O)C(=O)N[C@H](C(=O)N[C@H](C(=O)N1CCC[C@H]1C(=O)N[C@@H](CS)C(=O)N[C@@H](CO)C(=O)NCC(=O)NCC(=O)Nc1ccc(N)c2c1C(=O)c1ccccc1C2=O)[C@@H](C)O)C(C)C` [Compound 5763, Acetyl-Asp-Glu-Val-Thr-Pro-Cys-Ser-Gly-Gly-toxin] (Ac-DEVTPCSGG-{NH(4-NH2-anthraquinon-1-yl)}), the IC50 is more than 150 µM in experiment [5] (setting [15]); more than 150 µM in experiment [5] (setting [16]); 116 µM in experiment [5] (setting [17]); 32 µM in experiment [5] (setting [18]); 7 µM in experiment [5] (setting [19]); 146 µM in experiment [5] (setting [20]). The IC50 in experiment [5] (setting [9]) was 6 µM; in experiment [1] (setting [10]), more than 150 µM; in experiment [1] (setting [11]), 120 µM; in experiment [1] (setting [12]), 84 µM; in experiment [1] (setting [21]), 131 µM; in experiment [1] (setting [13]), 48 µM. Also, the IC50 was 17 µM in experiment [1] (setting [14]); 17 µM in experiment [1] (setting [6]); 112 µM in experiment [2] (setting [22]); more than 150 µM in experiment [3] (setting [22]); more than 150 µM in experiment [4] (setting [23]).

Take `CC(=O)N[C@@H](CC(=O)O)C(=O)N[C@@H](CCC(=O)O)C(=O)N[C@H](C(=O)N[C@H](C(=O)N1CCC[C@H]1C(=O)N[C@@H](CS)C(=O)N[C@@H](CO)C(=O)NCC(=O)NCC(=O)Nc1ccc(N)c2c1C(=O)c1ccccc1C2=O)C(C)C)C(C)C` [Compound 5761, Acetyl-Asp-Glu-Val-Val-Pro-Cys-Ser-Gly-Gly-toxin] (Ac-DEVVPCSGG-{NH(4-NH2-anthraquinon-1-yl)}): the IC50 is more than 150 µM in experiment [5] (setting [15]); more than 150 µM in experiment [5] (setting [16]); 89 µM in experiment [5] (setting [17]); 28 µM in experiment [5] (setting [18]); 5 µM in experiment [5] (setting [19]); more than 150 µM in experiment [1] (setting [10]). Further, the IC50 in experiment [1] (setting [11]) was > 150 µM and 126 µM; in experiment [1] (setting [12]) it was > 150 µM and 88 µM; in experiment [2] (setting [7]), 24.4 µM; in experiment [4] (setting [8]), 51.1 µM.

Take `CC(=O)N[C@@H](CC(=O)O)C(=O)N[C@@H](CCC(=O)O)C(=O)N[C@@H](C)C(=O)N[C@H](C(=O)N[C@@H](CC(C)C)C(=O)N[C@@H](CS)C(=O)N[C@@H](CO)C(=O)NCC(=O)NCC(=O)Nc1ccc(N)c2c1C(=O)c1ccccc1C2=O)C(C)C` [Compound 5762, Acetyl-Asp-Glu-Ala-Val-Leu-Cys-Ser-Gly-Gly-toxin] (Ac-DEAVLCSGG-{NH(4-NH2-anthraquinon-1-yl)}): the IC50 in experiment [5] (setting [20]) is 132 µM; in experiment [1] (setting [21]) it was 46 µM; in experiment [2] (setting [22]) it was 77 µM; in experiment [3] (setting [22]), more than 150 µM; in experiment [4] (setting [23]), more than 150 µM.

Regarding `CC[C@H](NC(=O)[C@H](CC1CCCCC1)NC(=O)[C@H](CCC(=O)O)NC(=O)[C@H](Cc1ccccc1)NC(=O)[C@H](CCC(=O)O)NC(=O)[C@H](CC(=O)O)NC(C)=O)C(=O)N[C@@H](CO)C(=O)NCC(=O)NCC(=O)Nc1ccc(N)c2c1C(=O)c1ccccc1C2=O` [Compound 5766, Acetyl-Asp-Glu-Phe-Glu-Cha-ABA-Ser-Gly-Gly-toxin] (Ac-DEFE[Cha][Abu]SGG-{NH(4-NH2-anthraquinon-1-yl)}), the IC50 in experiment [5] (setting [9]) amounted to 8.5 µM; in experiment [1] (setting [6]) it was 5.3 µM; in experiment [2] (setting [7]), 10.2 µM; in experiment [4] (setting [8]), 24.5 µM.
